# Experimental data reported in patent US20100105745A1, “Suppression of cancer and method for evaluating anticancer agent based on the effect of inhibiting gsk3 beta” (priority 2005, published 2010).
# Assays:
# [1] = tested on: Colon cancer cell lines (SW480 and HCT116); assay: MTS viable cell assay (cell survival); format: cell-based, human; details: 5, 10, 25, and 50 μM, 24-96 hours, FIG. 4A
# Method: (§1) Each colon cancer cell line and HEK293 cells were seeded at 3×10^3 cells per well of 96-well culture plates and then cultured overnight in corresponding media (this day was designated day 0). Known GSK3β inhibitors, AR-A014418 (N-(4-methoxybenzyl)-N′-(5-nitro-1,3-thiazol-2-yl)urea, Calbiochem) and SB-216763 (3-(2,4-dichlorophenyl)-4-(1-methyl-1H-indol-3-yl)-1H-pyrrole-2,5-dione, Sigma-Aldrich) were dissolved in dimethyl sulfoxide (DMSO). On day 0, the medium for each cell line were exchanged and then AR-A014418 or SB-216763 was added to the medium to different concentrations (5, 10, 25, and 50 μM). As controls, samples prepared by adding AR-A014418 or SB-216763 to the same concentrations to wells containing no cells and a sample prepared by adding DMSO alone to a well containing cells were analyzed simultaneously.
# (§2) At time points after indicated lengths of the times (24, 48, 72, and 96 hours) had elapsed from day 0, the number of viable cells in each well was measured using an MTS* viable cell measurement kit (CellTiter 96™ Aqueous, Promega Corp) in accordance with the protocols of Promega. Practically, 20 μL of an MTS mixture solution that had been prepared immediately before addition was added to each well, followed by three hours of reaction at 37° C. under 5% CO2 wet conditions. Absorbance at a wavelength of 490 nm was measured using a THERMOmax microplate reader (Molecular Devices). The number of cells of each cell line (in 6 wells for treatment by each concentration of AR-A014418 or SB-216763) was measured, and the average absorbance was calculated to determine the number of viable cells.
# [2] = tested on: HEK293 cells; assay: MTS viable cell assay (cell survival); format: cell-based, human; details: FIG. 4A
# Method: as §1, §2
# [3] = tested on: HEK293 cells; assay: Apoptosis (Hoechst staining) and proliferation (PCNA labeling index) by double staining; format: cell-based, human; details: for changes in apoptosis frequency: FIG. 4C; for changes in cellular proliferation rates (PCNA labeling index): FIG. 4D
# Method: (§3) A, B, and E: The number of viable cells in each well as measured by MTS assay at points in time at which the indicated lengths of the time (24, 48, 72, and 96 hours) had elapsed since day 0. C and D: The proportion (D) of proliferating cells' nuclei (PCNA positive) in all the cells observed or the proportion (C) of nuclei undergoing apoptosis in all the cells observed when the cells were subjected to double staining by an immunofluorescence method using an anti-PCNA (proliferating cell nuclear antigen) antibody and Hoechst and then observed under a fluorescence microscope.
# [4] = tested on: colon cancer cells; assay: as above; format: cell-based, human; details: for cellular proliferation rates (PCNA labeling index): FIG. 4D; for apoptosis frequency: Hoechst staining, FIG. 4C
# Method: as §3
# [5] = tested on: glioblastoma cell line (A172, T98G, U251, and U87); assay: WST-8 viable cell assay; format: cell-based, human; details: 5-50 μM, compared with DMSO, FIGS. 9, 10A
# Method: In this example, 4 types of glioblastoma cell line (A172, T98G, U251, and U87 purchased from American Type Culture Collection [ATCC, Manassas, Va.]) and human embryonic kidney cells HEK293 were used as subjects. The expression of GSK3β and the expression of its fractions that had undergone phosphorylation in these cell lines were analyzed in accordance with <Example 1>. Furthermore, the effects of a known GSK3β inhibitor (AR-A014418 or SB-216763) on the survival, proliferation, and apoptosis of tumor cells were analyzed in a manner similar to that in the case of colon cancer cells. […] Number of viable cells and apoptosis frequencies were measured over time. As controls, number of viable cells and apoptosis frequencies were also measured for cells that had been cultured after addition of the same amount of DMSO. In addition, unlike <Example 1>, a WST-8** assay kit (Cell Counting Kit-8, Wako, Osaka) and a microplate reader produced by Bio-Rad Laboratories, Inc. (Hercules, Calif.) were used for measurement of number of viable cells. Furthermore, regarding cell fractions during the proliferation phase, the number of cells incorporating bromodeoxy uridine (BrdU) was measured using a Cell Proliferation ELISA BrdU Kit (Roche, Panzberg, Germany), and then the influence of the GSK3β inhibitor (AR-A014418 or SB-216763) on the proliferation of tumor cells was analyzed.
# [6] = tested on: HEK293 cells; assay: Apoptosis frequency; format: cell-based, human; details: compared with DMSO, FIG. 10B
# Method: (§4) In this example, 4 types of glioblastoma cell line (A172, T98G, U251, and U87 purchased from American Type Culture Collection [ATCC, Manassas, Va.]) and human embryonic kidney cells HEK293 were used as subjects. The expression of GSK3β and the expression of its fractions that had undergone phosphorylation in these cell lines were analyzed in accordance with <Example 1>. Furthermore, the effects of a known GSK3β inhibitor (AR-A014418 or SB-216763) on the survival, proliferation, and apoptosis of tumor cells were analyzed in a manner similar to that in the case of colon cancer cells. Each cell line was cultured overnight and then cultured in medium to which AR-A014418 or SB-216763 dissolved in DMSO had been added to predetermined concentrations (5 μM, 10 μM, 25 μM or 40 μM, and 50 μM). Number of viable cells and apoptosis frequencies were measured over time. As controls, number of viable cells and apoptosis frequencies were also measured for cells that had been cultured after addition of the same amount of DMSO. In addition, unlike <Example 1>, a WST-8** assay kit (Cell Counting Kit-8, Wako, Osaka) and a microplate reader produced by Bio-Rad Laboratories, Inc. (Hercules, Calif.) were used for measurement of number of viable cells. Furthermore, regarding cell fractions during the proliferation phase, the number of cells incorporating bromodeoxy uridine (BrdU) was measured using a Cell Proliferation ELISA BrdU Kit (Roche, Panzberg, Germany), and then the influence of the GSK3β inhibitor (AR-A014418 or SB-216763) on the proliferation of tumor cells was analyzed.
# [7] = tested on: glioblastoma cell line (A172, T98G, U251, and U87); assay: Apoptosis frequency; format: cell-based, human; details: glioblastoma cells; compared with DMSO; FIG. 10B
# Method: as §4
# [8] = tested on: glioblastoma cell line (A172, T98G, U251, and U87); assay: Cell Proliferation ELISA BrdU incorporation; format: cell-based, human; details: glioblastoma cells; FIG. 10C
# Method: Each cell line was cultured overnight and then cultured in medium to which AR-A014418 or SB-216763 dissolved in DMSO had been added to predetermined concentrations (5 μM, 10 μM, 25 μM or 40 μM, and 50 μM). Number of viable cells and apoptosis frequencies were measured over time. As controls, number of viable cells and apoptosis frequencies were also measured for cells that had been cultured after addition of the same amount of DMSO. In addition, unlike <Example 1>, a WST-8** assay kit (Cell Counting Kit-8, Wako, Osaka) and a microplate reader produced by Bio-Rad Laboratories, Inc. (Hercules, Calif.) were used for measurement of number of viable cells. Furthermore, regarding cell fractions during the proliferation phase, the number of cells incorporating bromodeoxy uridine (BrdU) was measured using a Cell Proliferation ELISA BrdU Kit (Roche, Panzberg, Germany), and then the influence of the GSK3β inhibitor (AR-A014418 or SB-216763) on the proliferation of tumor cells was analyzed.
# [9] = tested on: HEK293 cells; assay: Cellular senescence by x-gal staining; format: cell-based, human; details: 25 μM, 72 hours, compared with DMSO
# Method: (§5) In accordance with <Example 1>, each colon cancer cell line (SW480 and HCT116) and a non-cancer cell line (human embryonic kidney cells HEK293) were treated with a 25 μM GSK3β inhibitor (AR-A014418 or SB-216763) or GSK3β-specific RNA interference. As controls, DMSO was administered to these cells or the cells were treated with non-specific RNA interference. Subsequently, the frequency of senescent cells in control cells was compared with that in the corresponding cells in which GSK3β had been inhibited and then the result was analyzed. Furthermore, human telomerase reverse transcriptase (hTERT) mRNA expression that is a molecular indication of cell immortalization and changes in telomerase activity in these cells were compared and analyzed over time. Senescent cells were determined as cells found to be positive for x-gal staining that is an indicator of (3-galactosidase activity. Practically, for this staining, cells cultured on cover glasses were washed with phosphate buffered saline (PBS) and then fixed using a citrate.phosphate fixation solution (0.1 M citric acid, 0.2 M Na2HPO4, pH 6.0) at room temperature for 5 minutes. Subsequently, cells were washed twice with PBS and then caused to react using a x-gal staining solution (1 mg/mL x-gal [Sigma-Aldrich], 5 mM K3Fe[CN]6, 2 mM MgCl2, 150 mM NaCl, 30 mM citrate.phosphate buffer, and 5 mM K4Fe[CN]6) at 37° C. for 20 hours. Stained cells were washed with PBS and then fixed again with 4% paraformaldehyde. X-gal staining positive cells were identified by observation under a light microscope. The frequency of senescent cells was determined by observing 5 high-power fields and measuring and calculating the average frequency of x-gal staining positive cells in the total number of cells (approximately 100 cells) in each field.
# [10] = tested on: colon cancer cell line (SW480 and HCT116); assay: Cellular senescence by x-gal staining; format: cell-based, human; details: colon cancer cell lines; 25 μM; 72 hours; compared with DMSO; FIGS. 11 and 12
# Method: as §5
# [11] = tested on: human telomerase reverse transcriptase (hTERT) in HEK293 cells; assay: hTERT mRNA expression by RT-PCR; format: cell-based; details: 25 μM inhibitor, FIG. 13
# Method: (§6) In accordance with <Example 1>, each colon cancer cell line (SW480 and HCT116) and a non-cancer cell line (human embryonic kidney cells HEK293) were treated with a 25 μM GSK3β inhibitor (AR-A014418 or SB-216763) or GSK3β-specific RNA interference. As controls, DMSO was administered to these cells or the cells were treated with non-specific RNA interference. Subsequently, the frequency of senescent cells in control cells was compared with that in the corresponding cells in which GSK3β had been inhibited and then the result was analyzed. Furthermore, human telomerase reverse transcriptase (hTERT) mRNA expression that is a molecular indication of cell immortalization and changes in telomerase activity in these cells were compared and analyzed over time.
# (§7) hTERT mRNA expression was analyzed by extracting total RNA from subject cells and then performing the RT-PCR method. An upstream primer (5′-[…]-3′: SEQ ID NO: 3) and a downstream primer (5′-GGATGAAGCGGAGTCTGGA-3′: SEQ ID NO: 4) were used for RT-PCR. The hTERT gene was amplified by performing 36 or 38 cycles of an RT-PCR program (15 seconds at 94° C., 10 seconds at 55° C., and 9 seconds at 72° C.). Telomerase activity was detected in accordance with recommended protocols using a commercial kit (TRAPEZE® Telomerase Detection Kit, Chemicon International). hTERT expression levels and telomerase activity in GSK3β-inhibited cells and control cells were determined via measurement and quantification of signals on electrophoresis using a densitometer (NIH Image Software), followed by comparison and analysis thereof.
# [12] = tested on: human telomerase reverse transcriptase (hTERT) in colon cancer cell lines (SW480 and HCT116); assay: hTERT mRNA expression by RT-PCR; format: cell-based; details: 25 μM inhibitor, 72 or 96 hours, FIG. 13
# Method: as §6, §7
# [13] = tested on: telomerase activity in HEK293 cells; assay: Telomerase activity (TRAPEZE Telomerase Detection Kit); format: cell-based, human; details: 25 μM inhibitor, FIG. 14
# Method: as §6, §7
# [14] = tested on: telomerase activity in colon cancer cell lines (SW480 and HCT116); assay: as above; format: cell-based, human; details: 25 μM inhibitor, 72 or 96 hours, FIG. 14
# Method: as §6, §7
# [15] = target: GSK3β immunoprecipitated from colon cancer cell lines (SW480 and HCT116) (Homo sapiens, UniProt P49841); assay: Non-radioisotopic in vitro GSK3β enzyme activity assay; format: biochemical; details: 25 μM, compared with DMSO, FIG. 19
# Chain of GSK3β immunoprecipitated from colon cancer cell lines (SW480 and HCT116) (P49841 whole entry): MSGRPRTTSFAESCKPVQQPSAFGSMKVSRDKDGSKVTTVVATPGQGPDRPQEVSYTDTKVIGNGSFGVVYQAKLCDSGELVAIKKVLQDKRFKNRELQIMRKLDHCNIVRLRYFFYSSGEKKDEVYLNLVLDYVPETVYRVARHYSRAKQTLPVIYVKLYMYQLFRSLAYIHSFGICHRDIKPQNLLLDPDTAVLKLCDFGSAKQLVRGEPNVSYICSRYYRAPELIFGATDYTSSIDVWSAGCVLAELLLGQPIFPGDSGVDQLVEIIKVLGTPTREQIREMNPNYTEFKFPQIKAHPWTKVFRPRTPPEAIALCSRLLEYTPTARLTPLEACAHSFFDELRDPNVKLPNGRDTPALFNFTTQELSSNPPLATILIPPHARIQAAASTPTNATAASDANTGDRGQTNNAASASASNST
# Method: First, a specific anti-GSK3β antibody and beads (resins) are added to a cell extract and then the GSK3β protein is immunoprecipitated (S in FIG. 16). As a negative control (control), non-specific mouse IgG with the same concentration is added to the same type of cell extract (C in FIG. 16). Next, in the presence of a kinase buffer, a recombinant human β-catenin protein (substrate) and nonradioactive ATP (P in FIG. 16) are added, and then a phosphorylation reaction is performed. Subsequently, the reaction solution is analyzed by the Western blot method. A phosphorylated human β-catenin protein is detected using an anti-phosphorylate β-catenin peptides antibody. […] In accordance with the methods in <Example 1>, the protein was extracted from each cell line using a cell lysis buffer (0.2 M Tris-HCl pH 7.5, 1.5 M NaCl, 10 mM EDTA, 10 mM EGTA, 10% Triton X-100, 25 mM sodium pyrophosphate, 10 mM β-glyceophosphate, 10 mM Na3VO4, and Protease inhibitors cocktail [Sigma-Aldrich]). […] Next, GSK3β and the recombinant human β-catenin protein in the reaction solutions were similarly detected by the Western blot method. […] These reaction solutions were similarly analyzed by the Western blot method.
Structure (SMILES),survival (rate) of cells [1],effect to suppress cell survival [2],changes in apoptosis frequency [3],changes in cellular proliferation rates (PCNA labeling index) [3],cellular proliferation rates (PCNA labeling index) [4],apoptosis frequency [4],number of viable cells [5],apoptosis [6],apoptosis [7],proliferation (BrdU incorporated) [8],frequency of senescent cells (x-gal staining positive) [9],frequencies of senescent cells (x-gal staining positive) [10],hTERT expression [11],hTERT expression [12],telomerase activity [13],telomerase activity [14],GSK3β activity (phosphorylation of recombinant human β-catenin) [15]
"COc1ccc(CNC(=O)Nc2ncc([N+](=O)[O-])s2)cc1 [AR-A014418, N-(4-methoxybenzyl)-N′-(5-nitro-1,3-thiazol-2-yl)urea]",decreased in a manner depending on the dose,not observed,minimal,minimal,lowered,increased,decreased in a manner depending on the concentration of each inhibitor,"mildly induced by the addition of the GSK3β inhibitor to the medium, but no significant differences were observed",significantly induced,suppressed,no significant differences,significantly increased,neither changes in hTERT expression,suppressed,nor suppression of telomerase activity,suppressed,completely inhibited
"Cn1cc(C2=C(c3ccc(Cl)cc3Cl)C(=O)NC2=O)c2ccccc21 [SB-216763, 3-(2,4-Dichlorophenyl)-4-(1-methyl-1H-indol-3-yl)-1H-pyrrole-2,5-dione]",decreased in a manner depending on the dose,not observed,minimal,minimal,lowered,increased,decreased in a manner depending on the concentration of each inhibitor,"mildly induced by the addition of the GSK3β inhibitor to the medium, but no significant differences were observed",significantly induced,suppressed,no significant differences,significantly increased,neither changes in hTERT expression,suppressed,nor suppression of telomerase activity,suppressed,completely inhibited
